Measured values taken from patent US6413542B1, “Direct pour-on antiparasitic skin solution and methods for treating, preventing and controlling myasis” (Merial, priority 1996, dated 2002).

How the values were obtained:
[1] = Solubility of compound A in the solvent acetyl tributyl citrate; assay type: physicochemical
Excerpt: The solvent will be used in proportion with the concentration of the compound I and its solubility in this solvent.
It will be sought to have the lowest possible volume.

[2] = system: Boophilus microplus; test: Example 2: efficacy of pour-on skin solutions against Boophilus microplus on artificially infested cattle (tick counts); assay type: in vivo; conditions: skin solution containing 1% compound A, 1 ml per 10 kg along the line of the back
Procedure: Study of the efficacy of skin solutions according to the invention containing, respectively, 0.25, 0.50 and 1% compound A to combat Boophilus microplus.
The study was performed on 16 young male castrated Herefords (weight ranging between 114 and 172 kg).
Three skin solutions according to Example 1 were prepared:
A placebo was prepared, which differed from the skin solutions according to the invention in that it contained no compound A.
In the studies, 1 ml of skin solution or of placebo were used per 10 kg of animal weight.
The dose volume was applied along the line of the animal's back, from the head to the base of the tail.
Between days-24 and -1, the animals were artificially infested on 11 occasions with 2,500 Boophilus microplus larvae. The aim of 24-day infestation is to ensure that all of the stages of Boophilus microplus are present on the animal (eggs, larvae, adults).
On day 0, the animals receive one of the skin solutions or the placebo.
Before the skin solutions or the placebo are applied, the number of ticks present on the various animals in the different groups are counted.
The blood-engorged female ticks which become detached are included in the count.

[3] = system: Boophilus microplus; test: Example 4: efficacy over time of skin solutions on cattle re-infested with larvae for 13 weeks; assay type: in vivo; parameters: Efficacy index: scale not given here
Excerpt: Study of efficacy over time.
Skin solutions according to the invention containing 0.25, 0.5 or 1% compound A where used in this example.
The composition of these solutions is the same as for the above examples.
The cattle were preinfested so as to have all of the stages of Boophilus microplus present (infestation with 5,000 larvae, 22 days, 15 days and 8 days before application of the skin solution).
After application of the skin solutions, the cattle are again infested with the larvae for 13 weeks, to determine the efficacy of the three concentrations.

N#Cc1nn(-c2c(Cl)cc(C(F)(F)F)cc2Cl)c(N)c1[S+]([O-])C(F)(F)F (stereo not drawn) [compound A, 1-[2,6-Cl2 4-CF3phenyl]3-CN 4-[SO-CF3]5-NH2pyrazole]
solubility [1]: 4.3 % m/V
efficacy [2]: 100%
Efficacy index ([3]; 0.25% solution, week 1 of infestation after treatment): 97.6
Efficacy index ([3]; 0.25% solution, week 2 of infestation after treatment): 98.8
Efficacy index ([3]; 0.25% solution, week 3 of infestation after treatment): 99.7
Efficacy index ([3]; 0.25% solution, week 4 of infestation after treatment): 99.3
Efficacy index ([3]; 0.25% solution, week 5 of infestation after treatment): 96.7
Efficacy index ([3]; 0.25% solution, week 6 of infestation after treatment): 98.6
Efficacy index ([3]; 0.25% solution, week 7 of infestation after treatment): 92.4
Efficacy index ([3]; 0.25% solution, week 8 of infestation after treatment): 85.8
Efficacy index ([3]; 0.25% solution, week 9 of infestation after treatment): 28.0
Efficacy index ([3]; 0.25% solution, week 10 of infestation after treatment): 23.0
Efficacy index ([3]; 0.25% solution, week 11 of infestation after treatment): 18.9
Efficacy index ([3]; 0.25% solution, week 12 of infestation after treatment): 1.7
Efficacy index ([3]; 0.25% solution, week 13 of infestation after treatment): 8.4
Efficacy index ([3]; 0.5% solution, week 1 of infestation after treatment): 100
Efficacy index ([3]; 0.5% solution, week 2 of infestation after treatment): 100
Efficacy index ([3]; 0.5% solution, week 3 of infestation after treatment): 100
Efficacy index ([3]; 0.5% solution, week 4 of infestation after treatment): 100
Efficacy index ([3]; 0.5% solution, week 5 of infestation after treatment): 92.9
Efficacy index ([3]; 0.5% solution, week 6 of infestation after treatment): 93.2
Efficacy index ([3]; 0.5% solution, week 7 of infestation after treatment): 88.6
Efficacy index ([3]; 0.5% solution, week 8 of infestation after treatment): 83.4
Efficacy index ([3]; 0.5% solution, week 9 of infestation after treatment): 37.9
Efficacy index ([3]; 0.5% solution, week 10 of infestation after treatment): 41.4
Efficacy index ([3]; 0.5% solution, week 11 of infestation after treatment): 55.2
Efficacy index ([3]; 0.5% solution, week 12 of infestation after treatment): 37.3
Efficacy index ([3]; 0.5% solution, week 13 of infestation after treatment): 48.5
Efficacy index ([3]; 1.0% solution, week 1 of infestation after treatment): 100
Efficacy index ([3]; 1.0% solution, week 2 of infestation after treatment): 100
Efficacy index ([3]; 1.0% solution, week 3 of infestation after treatment): 100
Efficacy index ([3]; 1.0% solution, week 4 of infestation after treatment): 100
Efficacy index ([3]; 1.0% solution, week 5 of infestation after treatment): 100
Efficacy index ([3]; 1.0% solution, week 6 of infestation after treatment): 100
Efficacy index ([3]; 1.0% solution, week 7 of infestation after treatment): 99.7
Efficacy index ([3]; 1.0% solution, week 8 of infestation after treatment): 100
Efficacy index ([3]; 1.0% solution, week 9 of infestation after treatment): 79.8
Efficacy index ([3]; 1.0% solution, week 10 of infestation after treatment): 65.3
Efficacy index ([3]; 1.0% solution, week 11 of infestation after treatment): 61.5
Efficacy index ([3]; 1.0% solution, week 12 of infestation after treatment): 32.2
Efficacy index ([3]; 1.0% solution, week 13 of infestation after treatment): 46.4
period of efficacy against Boophilus microplus ([3]; pour-on skin solutions, cattle): two
